# Assay results taken from patent US8906945B2 (priority 2009, dated 2014).
# pIC50: −log10 of the molar value. Like-named read-outs stand apart in the source and are kept apart here.
# Legend:
# [1] = tested on: P. aeruginosa T3SS (exoT-luxCDABE reporter strain MDM852); assay type: cell-based, Pseudomonas aeruginosa; conditions: both at 50 μM compound; for Serum Effect: % inhibition of exoT-lux RLU in the absence of serum/% inhibition in the presence of 10% fetal calf serum; for RLU Selectivity / RLU-S (RLU Selectivity): % inhibition of exoT-lux RLU/% inhibition of lac-lux RLU; for RLU-S (RLU Selectivity): Table 5
# in vitro = conditions: human
# [2] = tested on: T3SS-mediated secretion of ExoS′-βLA fusion protein from P. aeruginosa strain MDM973; test: microbe, parasite or virus in culture; assay type: cell-based, Pseudomonas aeruginosa
# HeLa cells = conditions: ratio of HeLa CC50 vs ExoS′-βLA IC50
# [3] = tested on: T3SS-mediated secretion of YopE-βLA fusion protein from Y. pestis strain JG153/pMM85; test: microbe, parasite or virus in culture; assay type: cell-based; conditions: Yersinia pestis, read-out: yopE-βLA IC50
# [4] = tested on: ExoU translocation from P. aeruginosa strain PAKΔSTYexoU into CHO cells; test: Inhibition of P. aeruginosa ExoU-dependent CHO cell killing (LDH release); conditions: ExoU-secreting P. aeruginosa, MOI 5
# P. aeruginosa = test: Minimum inhibitory concentration (broth microdilution); conditions: Pseudomonas aeruginosa, read-out: MIC vs. P. aeruginosa
# [5] = Pseudomonas aeruginosa, read-out: ExoS′-βLA IC50, Table 3, secretion from P. aeruginosa strain MDM973 reduced by 50%
# [6] = Pseudomonas aeruginosa, read-out: ExoS′-βLA IC50, Table 5, P. aeruginosa strain MDM973
# [7] = Pseudomonas aeruginosa, read-out: IC50 (μM) (ExoS′-βLA assay), Table 4
# [8] = CC50 (cytotoxicity, HeLa), absence of serum
# [9] = Pseudomonas aeruginosa, read-out: IC50 in the ExoS′-βLA secretion assay
# [10] = Table 4, read-out: IC50 (μM) (ExoS′-βLA assay)
Compound,Serum Effect [1],RLU Selectivity [1],CC50 (in vitro; HeLa CC50) [µM],"pIC50 [2, 5]",CC50/IC50 (HeLa cells),"IC50 [2, 7] [µM]",also measured
"Cc1ccc(NC(=O)/C=C/C(=O)OCC(F)(F)C(F)F)cc1 [Compound 5, (E)-2,2,3,3-tetrafluoropropyl 4-oxo-4-(p-tolylamino)but-2-enoate]",2.6,4.5,28,4.66,1.3,–,–
"CCc1ccc2nc(N3C(=O)C(O)=C(C(=O)c4cccs4)C3c3ccc([N+](=O)[O-])cc3)sc2c1 (stereo not drawn) [Compound 10, 1-(6-ethylbenzo[d]thiazol-2-yl)-3-hydroxy-5-(4-nitrophenyl)-4-(thiophene-2-carbonyl)-1H-pyrrol-2(5H)-one]",1.8,3.8,16,5.52,5.3,–,pIC50 [3]: 5.39
"NC(=O)/C=C/C(=O)Nc1ccccc1Cl [Compound 7, N1-(2-chlorophenyl)fumaramide]",1.5,4.7,40,4.77,2.4,–,–
"CC(Oc1ccc(Cl)cc1Cl)C(=O)NC(C)C1CC2CCC1C2 (stereo not drawn) [compound 7247834, N-(1-(bicyclo[2.2.1]heptan-2-yl)ethyl)-2-(2,4-dichlorophenoxy)propanamide]",–,–,–,–,–,–,"RLU-S (RLU Selectivity) [1]: 5.6; pIC50 [2, 6]: 4.78"
"CC(Oc1ccc(Cl)cc1Cl)C(=O)N(C)Cc1ccccc1 (racemic) [compound 6468028, N-benzyl-2-(2,4-dichlorophenoxy)-N-methylpropanamide]",–,–,–,–,–,21,–
"CCN1CCOC(CC(=O)Nc2ccc3c(c2)OCCO3)C1=O (stereo not drawn) [Compound 3, N-(2,3-dihydrobenzo[b][1,4]dioxin-6-yl)-2-(4-ethyl-3-oxomorpholin-2-yl)acetamide]",4.8,4.1,> 100,4.70,>5.0,–,"rescue of CHO cells from ExoU cytotoxicity (in words) [4]: failed to inhibit T3SS-mediated translocation; pIC50 [3]: 4.80; CC50 (in vitro; [8]): ≥ 100 µM; pIC50 [2, 9]: ≥ 4.60; MIC (P. aeruginosa): > 100 µM"
"CC(Oc1ccc(Cl)cc1Cl)C(=O)NCc1ccc(Cl)c(Cl)c1 (racemic) [compound 7271715, N-(3,4-dichlorobenzyl)-2-(2,4-dichlorophenoxy)propanamide]",–,–,–,–,–,> 100,–
"CC(C)(Oc1ccc(Cl)cc1Cl)C(=O)NCc1ccc2c(c1)OCO2 [MBX 1685, N-[3,4-(methylenedioxy)benzyl]-2-(2,4-dichlorophenoxy)-2-methylpropanamide]",–,–,–,–,–,–,"IC50 [2, 10]: > 100 µM"
"NC(=O)/C=C/C(=O)Nc1ccccc1 [Compound 6, N1-phenylfumaramide]",1.5,3.6,35,4.72,1.8,–,–
"COc1ccccc1CNC(=O)C(C)Oc1ccc(Cl)cc1Cl (racemic) [compound 6374948, 2-(2,4-dichlorophenoxy)-N-(2-methoxybenzyl)propanamide]",–,–,–,–,–,12,–
"C[C@@H](Oc1ccc(Cl)cc1Cl)C(=O)NCc1ccc2c(c1)OCO2 [MBX 1684, (R)-N-(benzo[d][1,3]dioxol-5-ylmethyl)-2-(2,4-dichlorophenoxy)propanamide]",–,–,–,–,–,6,"T3SS inhibitory activity (active/inactive) ([2]; ExoS′-βLA reporter assay): active; pIC50 [2, 9]: ~5.22"
"Cc1ccc(CNC(=O)C(C)Oc2ccc(Cl)cc2Cl)cc1 (racemic) [compound 6109233, 2-(2,4-dichlorophenoxy)-N-(4-methylbenzyl)propanamide]",–,–,–,–,–,5,–
"CC(Oc1ccccc1Cl)C(=O)NCc1ccc2c(c1)OCO2 (racemic) [compound 9153915, N-(1,3-benzodioxol-5-ylmethyl)-2-(2-chlorophenoxy)propanamide]",–,–,–,–,–,23,–
"CC(Oc1ccc(Cl)cc1Cl)C(=O)NCc1ccc(F)cc1 (racemic) [compound 6380194, 2-(2,4-dichlorophenoxy)-N-(4-fluorobenzyl)propanamide]",–,–,–,–,–,9,rescue of CHO cells from ExoU cytotoxicity (in words) [4]: rescued CHO cells
CC(Oc1ccccc1F)C(=O)NCc1ccc2c(c1)OCO2 (stereo not drawn) [compound 7339628],–,–,–,–,–,–,"IC50 [2, 10]: > 100 µM"
"C[C@H](Oc1ccc(Cl)cc1Cl)C(=O)NCc1ccc2c(c1)OCO2 [MBX 1686, N-[3,4-(methylenedioxy)benzyl]-(S)-2-(2,4-dichlorophenoxy)propanamide]",–,–,–,–,–,–,"T3SS inhibitory activity (active/inactive) [2]: inactive; IC50 [2, 10]: > 100 µM; pIC50 ([2]; read-out: IC50 in the ExoS′-βLA secretion assay): < 4.00"
"Cc1nnc(-c2ccc(OCC(=O)N3CCc4ccccc43)cc2)o1 [F5054-0019, 1-(indolin-1-yl)-2-(4-(5-methyl-1,3,4-oxadiazol-2-yl)phenoxy)ethanone]",–,–,–,–,–,–,"RLU-S (RLU Selectivity) [1]: 10.8; pIC50 [2, 6]: 4.65"
"O=C(CC1Sc2ncnn2C1=O)Nc1ccccc1 (stereo not drawn) [Compound 2, 2-(6-oxo-5,6-dihydrothiazolo[3,2-b][1,2,4]triazol-5-yl)-N-phenylacetamide]",2,2.6,37,4.92,3.1,–,pIC50 [3]: 5.21
"COc1ccc(CNC(=O)C(C)Oc2ccc(Cl)cc2Cl)cc1 (racemic) [compound 6375680, 2-(2,4-dichlorophenoxy)-N-(4-methoxybenzyl)propanamide]",–,–,–,–,–,10,–
"Cc1cc(Cl)ccc1OC(C)C(=O)NCc1ccc2c(c1)OCO2 (racemic) [compound 6116488, N-(1,3-benzodioxol-5-ylmethyl)-2-(4-chloro-2-methylphenoxy)propanamide]",–,–,–,–,–,98,–
"CC(Oc1ccc(Cl)cc1Cl)C(=O)NCc1ccco1 (racemic) [compound 5685325, 2-(2,4-dichlorophenoxy)-N-(2-furylmethyl)propanamide]",–,–,–,–,–,25,rescue of CHO cells from ExoU cytotoxicity (in words) [4]: rescued CHO cells
"CC(Oc1ccc(Cl)cc1Cl)C(=O)NCCC1=CCCCC1 (racemic) [compound 6467504, N-[2-(1-cyclohexen-1-yl)ethyl]-2-(2,4-dichlorophenoxy)propanamide]",–,–,–,–,–,> 100,–
"Oc1ccc(O)c(Cc2nc3ccccc3[nH]2)c1 [compound 6430631, 2-((1H-benzo[d]imidazol-2-yl)methyl)benzene-1,4-diol]",–,–,–,–,–,–,"RLU-S (RLU Selectivity) [1]: 4.2; pIC50 [2, 6]: 4.65"
"CCN1CCOC(CC(=O)Nc2ccc(F)cc2)C1=O (stereo not drawn) [Compound 4, 2-(4-ethyl-3-oxomorpholin-2-yl)-N-(4-fluorophenyl)acetamide]",4.2,3.9,100,4.89,6.2,–,"rescue of CHO cells from ExoU cytotoxicity (in words) [4]: failed to inhibit T3SS-mediated translocation; pIC50 [3]: 5.22; CC50 (in vitro; [8]): ≥ 100 µM; pIC50 [2, 9]: ≥ 4.60; MIC (P. aeruginosa): > 100 µM"
"Cc1ccc(N2C(=O)C3C(C2=O)C2(C)C=CC3(C)O2)c(C)c1 (stereo not drawn) [Compound 8, 2-(2,4-dimethylphenyl)-4,7-dimethyl-3a,4,7,7a-tetrahydro-1H-4,7-epoxyisoindole-1,3(2H)-dione]",3.1,9.2,> 100,4.82,>6.7,–,"rescue of CHO cells from ExoU cytotoxicity (in words) [4]: failed to inhibit T3SS-mediated translocation; pIC50 [3]: 3.99; CC50 (in vitro; [8]): ≥ 100 µM; pIC50 [2, 9]: ≥ 4.60; MIC (P. aeruginosa): > 100 µM"
"CN1CCN(C(=S)c2ccc(N(C)C)cc2)CC1 [Compound 11, (4-(dimethylamino)phenyl)(4-methylpiperazin-1-yl)methanethione]",1,22,18,4.72,0.9,–,pIC50 [3]: 4.72
"Cc1nn(C)cc1CNC(=O)C(C)Oc1ccc(Cl)cc1Cl (racemic) [compound 8804126, 2-(2,4-dichlorophenoxy)-N-[(1,3-dimethyl-1H-pyrazol-4-yl)methyl]propanamide]",–,–,–,–,–,61,–
"O=C(COc1ccc(Cl)cc1Cl)NCc1ccc2c(c1)OCO2 [MBX 1668, N-[3,4-(methylenedioxy)benzyl]-2-(2,4-dichlorophenoxy)acetamide]",–,–,–,–,–,–,"IC50 [2, 10]: > 100 µM"
pseudolipasin [reference compound],–,–,–,–,–,–,rescue of CHO cells from ExoU cytotoxicity (in words) [4]: rescued CHO cells from ExoU toxicity with a similar potency
"CC(Oc1ccc(Cl)cc1Cl)C(=O)NCc1ccncc1 (racemic) [compound 6372013, 2-(2,4-dichlorophenoxy)-N-(4-pyridinylmethyl)propanamide]",–,–,–,–,–,59,–
